Results: US20130287854A1, “COMPOSITIONS AND USES” (VECTURA LIMITED, priority 2010, published 2013)

Tests used:
[1] = test system: male erectile dysfunction patients; assay: VR004/008 Phase IIb study, male erectile dysfunction; format: in vivo, human; details: a couple of patients receiving 310 μg and 430 μg doses
Description: In contrast, in a recent clinical study relating to male erectile dysfunction (VR004/008 Phase IIb study), the majority of patients reported that the duration of action lasted between 2 to 10 minutes, although a couple of patients receiving 310 μg and 430 μg doses did report that the duration of action lasted over 30 minutes.=

[2] = test system: Parkinson's disease patients; assay: Therapeutic effect of apomorphine by pulmonary inhalation in a clinical trial; format: in vivo, human
[3] = human, in vivo
patients with PD [4] = details: subcutaneous, cited from earlier work
patients with PD [5] = details: subcutaneous, 11/16 patients; cited from earlier work
[6] = cited from earlier work
[7] = test system: Parkinson's disease patients; details: subcutaneous injection, marketing literature; cited from earlier work

SMILES: CN1CCc2cccc3c2[C@H]1Cc1ccc(O)c(O)c1-3 [apomorphine]
- duration of action [1]: over 30 minutes
- onset of the therapeutic effect (conversion) ([2]; majority of patients, after inhaling): ≤ 10 min
- mean duration of the therapeutic effect ([2]; pulmonary inhalation, in a clinical trial): 75 min
- conversion from the off to the on state, quickest reported ([2]; some patients, pulmonary inhalation): 2 min
- Tmax, fastest observed [3]: 1 min
- patients reporting an increased dyskinesia severity compared to baseline (patients with PD [4]; 15 of 20 patients): 75%
- patients reporting signs of dyskinesia (patients with PD [4]; active group, FIG. 14): 35%
- mean daily duration of on state with non-troublesome dyskinesia and troublesome dyskinesias (patients with PD [4]; active group): 0.24 h
- change in the mean daily period asleep from the baseline (patients with PD [4]; active treatment group): 0.10 h
- mean time to reach therapeutic effect (patients with PD [4]; active treatment group): 22.2 min
- patients reporting incidences of dyskinesia (patients with PD [5]): 69%
- dose linearity of pharmacokinetics ([6]; dose range of 2 to 8 mg, single subcutaneous injection into the abdominal wall, idiopathic Parkinson's disease): linear pharmacokinetics
- Tmax ([6]; nasal administration): approximately 15 minutes
- patients with improved movement within 20 minutes post dose [7]: 90%
